Like-named read-outs stand apart in the source and are kept apart here.
Key:
CBL-B (residues 36-427) = molecular target: T1, CBL-B (residues 36-427) (Homo sapiens, UniProt Q13191); assay: Ligand Displacement Assay (LDA), HTRF competitive binding against BODIPY-labeled fluorescent tracer, CBL-B; settings: geometric mean of the number of tests, read-out: CBL-B Ki (nM) GMean
T1 construct: Purified CBL-B (residues 36-427) and C-CBL (residues 46-435) proteins from baculovirus-infected insect cells; made in house; host or cells: baculovirus-infected insect cells
In short: (§1)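 Ki values, given as geometric means of repeated tests, come from TR-FRET displacement of a BODIPY-labelled tracer from terbium-streptavidin-bound, AviTag-biotinylated protein made in baculovirus-infected insect cells. Compounds ran as three-fold dilutions in duplicate, […], 2% DMSO.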

C-CBL (residues 46-435) = molecular target: T2, C-CBL (residues 46-435) (Homo sapiens, UniProt P22681); assay: Ligand Displacement Assay (LDA), HTRF competitive binding against BODIPY-labeled fluorescent tracer, C-CBL; settings: geometric mean of the number of tests, read-out: C-CBL Ki (nM) GMean
T2 construct: Purified CBL-B (residues 36-427) and C-CBL (residues 46-435) proteins from baculovirus-infected insect cells; made in house; host or cells: baculovirus-infected insect cells
T2 sequence (P22681 46-435): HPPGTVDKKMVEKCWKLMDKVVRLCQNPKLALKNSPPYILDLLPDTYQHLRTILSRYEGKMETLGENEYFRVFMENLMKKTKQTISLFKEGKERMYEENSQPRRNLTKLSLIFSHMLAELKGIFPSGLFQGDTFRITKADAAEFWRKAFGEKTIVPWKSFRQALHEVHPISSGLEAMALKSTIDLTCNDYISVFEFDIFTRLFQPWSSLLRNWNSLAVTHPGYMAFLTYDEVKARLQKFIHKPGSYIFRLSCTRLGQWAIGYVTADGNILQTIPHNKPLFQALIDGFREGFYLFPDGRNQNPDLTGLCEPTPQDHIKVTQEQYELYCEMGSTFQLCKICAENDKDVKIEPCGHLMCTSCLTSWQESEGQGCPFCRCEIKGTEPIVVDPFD
In short: as §1

CBL-B = molecular target: T3, CBL-B (Homo sapiens, UniProt Q13191); assay: Jurkat HiBit-IL2 assay (c-CBL KO), reporter cell line expressing CBL-B only; type: cell-based; settings: geometric mean, read-out: C-CBL KO EC50 (nM) GMean
T3 construct: endogenous in cells; host or cells: Jurkat HiBit-IL2 reporter cells, C-CBL knocked out by CRISPR
Description: (§2) Jurkat HiBit-IL2 Assay (WT, c-CBL KO, CBL-B KO)
(§3) The purpose of the Jurkat HiBit-IL2 assay is to evaluate the effect of the inhibition of CBL-B and/or C-CBL on TCR/CD28 stimulated interleukin-2 (IL-2) secretion.
(§4) The expression of IL-2 can then be accurately measured by HiBit luciferase assay. Further, C-CBL or CBL-B was knocked out by CRISPR respectively in this Jurkat HiBit-IL2 reporter cell line to create reporter cell line expressing CBL-B only (c-CBL knockout (KO)) or C-CBL only (CBL-B KO).
(§5) All three reporter cell lines were maintained in RPMI-1640 media with GlutaMax, 10% fetal bovine serum, 100 units/ml of penicillin, and 100 μg/ml of streptomycin at 37° C., 5% CO2, at a cell density 1×10e5-2×10e6 viable cells/ml. Serial diluted compounds in DMSO (40 nl/well, final 0.1% DMSO in assay cell culture) were plated into 384-well white-wall clear-bottom cell culture plates. Reporter cells were pelleted and resuspended in fresh cell culture medium to 0.66×10e6 cells/ml and added to the assay plate at 30 μl/well (20,000 cells/well). The cells were incubated with compounds for 1 hour at 37° C., 5% CO2. 10 μl/well of anti-CD3 antibody (OKT3) and anti-CD28 antibody (CD28.2) prediluted in fresh cell culture medium at 4× final concentration (anti-CD3 mAb: 4 μg/ml; anti-CD28 mAb: 8 μg/ml) was added into the cells (final concentration of anti-CD3 mAb: 1 μg/ml; anti-CD28 mAb: 2 μg/ml). The cells were cultured for another 4 hours at 37° C., 5% CO2. The Nano-Glo HiBiT Lytic Reagent was prepared following the manufacturer's protocol. 20 ul/well of the Nano-Glo HiBiT Lytic Reagent was added into the reporter cell culture assay plate and incubated at room temperature (20-25° C.) for 15 minutes. The plates were read on a Perkin-Elmer EnVision plate reader with 0.1 second integration time. Data were normalized to “Fold of Effect” with the anti-CD3 and anti-CD28 antibodies only samples as the baseline activation level and EC50 was calculated. The EC50 (nM) values reported are the geometric means (GMean) of the number of tests conducted.

C-CBL = molecular target: T4, C-CBL (Homo sapiens, UniProt P22681); assay: Jurkat HiBit-IL2 assay (CBL-B KO), reporter cell line expressing C-CBL only; type: cell-based; settings: geometric mean, read-out: CBL-B KO EC50 (nM) GMean
T4 construct: endogenous in cells; host or cells: Jurkat HiBit-IL2 reporter cells, CBL-B knocked out by CRISPR
Description: as §2, §3, §4, §5

[1] = C-CBL KO (expressing CBL-B only), Table 16b (further repetition)
[2] = c-CBL KO (CBL-B only), anti-CD3/anti-CD28 stimulation 4 hours, Table 16a
[3] = CBL-B KO (C-CBL only), anti-CD3/anti-CD28 stimulation 4 hours, Table 16a
[4] = CBL-B KO (expressing C-CBL only), Table 16b (further repetition)

SMILES	Ki (CBL-B (residues 36-427)) [nM]	Ki (C-CBL (residues 46-435)) [nM]	EC50 (CBL-B; [1]) [nM]	EC50 (CBL-B; [2]) [nM]	EC50 (C-CBL; [3]) [nM]	EC50 (C-CBL; [4]) [nM]
C[C@H](O)C(=O)N[C@@H](C)c1nc(C(F)(F)F)cc2c(-c3cccc([C@H](c4nncn4C)C4CCC4)c3)n[nH]c12 (single isomer, unassigned) [Example I3]	0.8	0.7	6	3	17	15
C[C@H](N[C@H]1CC[C@@H]1O)c1nc(C(F)(F)F)cc2c(-c3cccc([C@H](c4nncn4C)C4CCC4)c3)n[nH]c12 (single isomer, unassigned) [Example D21]	5.4	68.1	107	39	420	1150
CC(NC[C@H](C)O)c1nc(C(F)(F)F)cc2c(-c3cccc([C@H](c4nncn4C)C4CCCCC4)c3)n[nH]c12 (single isomer, unassigned) [Example C99]	3.1	13.8	44			323
C[C@H](O)CN[C@H](C)c1nc(C(F)(F)F)cc2c(-c3cccc([C@H](c4nncn4C)C4CCC4)c3)n[nH]c12 (single isomer, unassigned) [Example D18]	1	9	22	10	96	137
CC(NC1CCC1)c1nc(C2CC2)cc2c(-c3cccc(C4(Cc5nncn5C)COC4)c3)n[nH]c12 (single isomer, unassigned) [Example H4, N-{(1ξ)-1-[5-cyclopropyl-3-(3-{3-[(4-methyl-4H-1,2,4-triazol-3-yl)methyl]oxetan-3-yl}phenyl)-1H-pyrazolo[3,4-c]pyridin-7-yl]ethyl}cyclobutanamine]	1	4.5	11	5	43	28
C[C@H](CO)N[C@@H](C)c1nc(C(F)(F)F)cc2c(-c3cccc([C@H](c4nncn4C)C4CCC4)c3)n[nH]c12 (single isomer, unassigned) [Example C43]	6.7	87.7	61	51	912	554
CC(NC(=O)CO)c1nc(C(F)(F)F)cc2c(-c3cccc([C@H](c4nncn4C)C4CCC4)c3)n[nH]c12 (single isomer, unassigned) [Example I1]	0.8	1.9	29	16	182	163
C[C@@H](N[C@@H]1CC[C@H]1O)c1nc(C(F)(F)F)cc2c(-c3cccc([C@H](c4nncn4C)C4CCC4)c3)n[nH]c12 (single isomer, unassigned) [Example D24]	2.2	22.3	58	22	285	452
CC(NCCO)c1nc(C(F)(F)F)cc2c(-c3cccc([C@H](c4nncn4C)C4CCC4)c3)n[nH]c12 (single isomer, unassigned) [Example C41]	3.2	30.1	154	42	327	877
C[C@@H](c1nc(C(F)(F)F)cc2c(-c3cccc([C@H](c4nncn4C)C4CCC4)c3)n[nH]c12)N1CC[C@H](O)C1 (single isomer, unassigned) [Example D70]	7.1	48.4	163			618
CC(C)[C@H]1CN(C)CCN1Cc1nc(C(F)(F)F)cc2c(-c3cccc([C@H](c4nncn4C)C4CCC4)c3)n[nH]c12 [Example D32, 3-{3-[(R)-cyclobutyl(4-methyl-4H-1,2,4-triazol-3-yl)methyl]phenyl}-7-{[(2S)-4-methyl-2-(propan-2-yl)piperazin-1-yl]methyl}-5-(trifluoromethyl)-1H-pyrazolo[3,4-c]pyridine]	1.3	10.2	12	8	175	134
C[C@@H](N[C@H]1CCC[C@@H]1O)c1nc(C(F)(F)F)cc2c(-c3cccc([C@H](c4nncn4C)C4CCC4)c3)n[nH]c12 (single isomer, unassigned) [Example C46]	9.4	67.8	61	36	392	330
CC[C@H](c1cccc(-c2n[nH]c3c([C@@H](C)NC[C@H](C)O)nc(C(F)(F)F)cc23)c1)c1nncn1C (single isomer, unassigned) [Example D77]	0.8	4.5	33			93
C[C@@H](c1nc(C(F)(F)F)cc2c(-c3cccc([C@H](c4nncn4C)C4CCC4)c3)n[nH]c12)N1CC[C@@H](O)C1 (single isomer, unassigned) [Example D68]	15.2	134	293			1710
CC(NCCO)c1nc(C(F)(F)F)cc2c(-c3cccc([C@H](c4nncn4C)C4CCC4)c3)n[nH]c12 (single isomer, unassigned) [Example C42]	2.5	28.2	94	29	316	635
C[C@H](N[C@@H]1CC[C@H](O)C1)c1nc(C(F)(F)F)cc2c(-c3cccc([C@H](c4nncn4C)C4CCC4)c3)n[nH]c12 [Example C49, (1S,3R)-3-({(1S)-1-[3-{3-[(R)-cyclobutyl(4-methyl-4H-1,2,4-triazol-3-yl)methyl]phenyl}-5-(trifluoromethyl)-1H-pyrazolo[3,4-c]pyridin-7-yl]ethyl}amino)cyclopentanol]	2.1	20.9		8	135	

Source: patent US20260125375A1 (Pfizer Inc., priority 2022, published 2026)
